This is an account of results in patent publication US8242152B2, “Use of 4-[(4-thiazolyl)phenoxy]alkoxy-benzamidine derivatives for the prophylaxis and treatment of osteoporosis” (Dong Wha Pharmaceutical Co., Ltd., priority 2001, dated 2012).

In one assay the test system is rabbit osteoclasts. As to the kind of experiment: TRAP(+) MNC formation in isolated rabbit osteoclast cultures, single treatment without LTB4 (Example 6). In kind it is cell-based. The note with it: for number of TRAP(+) MNCs / osteoclast formation: 1000 nM, single treatment without LTB4, dentine slices, 48 hrs (FIG. 3-8). Here is the method:
(§1) Rabbit osteoclasts were isolated as described by Victoria Tai's report (Doctoral Dissertation, 1997, Graduate Department of Pharmacology, University of Toronto) and Rraser P. Coxon et al. (Methods in Molecular Medicine, vol 80). Neonatal rabbits (New Zealand White) were sacrificed by ether-inhaling method under a hood. The removed long bones were dissected free of attached soft tissues and placed into ice-cold PBS. The long bones were cut longitudinally and mechanically curetted in 10 ml medium 199 with antibiotics (10 ug/ml penicillin G and 50 ug/ml gentamycin) in a glass Petri dish. Each bone was curetted with a scalpel blade and was finely minced. The fragments were then vigorously agitated by pipetting up and down using a pasteur pipette and vortex-mixed for 30 seconds. The fragments were allowed to settle and the cell suspension was then transferred to a 50 ml tube and the previous step repeated three times to a total volume of 40 ml. The bone fragments were allowed to settle (>1 min). The cell suspension was then transferred to a new 50 ml tube, passed through a 40 um cell strainer and centrifuged at 200 g for 8 minutes. The supernatant was removed and the pellet was immediately resuspended in α-MEM with 2% FBS (bicarbonate buffered medium).
(§2) 40 uL droplets of osteoclast-containing suspensions were plated onto 60 mm tissue culture plastic dishes or on dentine slices in 96-well microtiter plates in 2% medium. The cells were allowed ninety minutes for attachment before the addition of 2 mL α-MEM with 2% FBS. After 24 hr culture, cells were washed to remove non-adherent cells and replaced with fresh medium as describes below.
After 24 hr in culture, the medium was replaced with fresh medium containing control, LTB4 receptor antagonists (1000 nM), DW1350 (10, 100 and 1000 nM) or LTB4 (100 nM) and the cultures were continued for an additional 48 hrs.
(§3) All cells were cultured at 37° C. in a humidified atmosphere of 95% air and 5% CO2 in bicarbonate buffered medium at pH 7.4.
(§4) Differentiated osteoclasts are multinucleated cells and have specific enzyme activity, such as ‘tartrate-resistant acid phosphatase (TRAP)’. Therefore, Osteoclast formation was determined by counting the number of TRAP-positive multinucleated cells (TRAP(+) MNCs).
(§5) After culture, the cells were fixed with 10% neutral buffered formalin for 30 min at 4° C., washed twice in distilled water and stained for TRAP activity by incubating with substrate. The number of TRAP(+)MNC with more than 2 nuclei was counted under photomicroscope.
(§6) Results were expressed as mean number of TRAP(+)MNC±SD of All experiments were done at least twice. Statistical analysis was performed for each experiment by student t-test.

For assay [1], the system named is LTB4-induced osteoclast formation. As to the kind of experiment: LTB4-induced osteoclast formation in rabbit osteoclast cultures, co-treatment and pre-treatment (Example 6). In kind it is cell-based. As for the experimental part:
as §1, §2
After 24 hr in culture, the medium was removed and replaced with fresh medium containing both LTB4 receptor antagonist (1000 nM) and LTB4 (100 nM) or both DW1350 (1000 nM) and LTB4 (100 nM). The cultures were continued for an additional 48 hrs.
After 6 hrs in culture, the medium was removed and cells were pretreated with LTB4 receptor antagonists such as LY292728 (Journal of Medical Chemistry, 1995, vol. 38, No. 10, p 4411-4432), SB209247 (Journal of Medical Chemistry, 1996, vol. 39, No. 19, p 3837-3841), LY293111(Journal of Medical Chemistry, 1995, vol. 38, No. 10, p 4411-4432) and LY223982 (Journal of Medical Chemistry, 1993, vol. 36, p 3333-3340) or DW1350-containing medium and culture continued for 18 hrs. The medium was replaced with medium containing both LTB4 receptor antagonist and LTB4 or DW1350 and LTB4. The cultures were continued for an additional 48 hrs.
as §3, §4, §5, §6

A further assay deals with LTB4 receptor (Homo sapiens, UniProt Q15722). The note with it: cited from earlier work.
Where [2] appears, read: 1000 nM in the presence of 100 nM LTB4 (FIGS. 6˜8), regimen not separated.

“And” between values parts separate entries of the source, which are not always exact repeats. Equal values may be shown once.

Sequence of LTB4 receptor (Q15722 whole entry): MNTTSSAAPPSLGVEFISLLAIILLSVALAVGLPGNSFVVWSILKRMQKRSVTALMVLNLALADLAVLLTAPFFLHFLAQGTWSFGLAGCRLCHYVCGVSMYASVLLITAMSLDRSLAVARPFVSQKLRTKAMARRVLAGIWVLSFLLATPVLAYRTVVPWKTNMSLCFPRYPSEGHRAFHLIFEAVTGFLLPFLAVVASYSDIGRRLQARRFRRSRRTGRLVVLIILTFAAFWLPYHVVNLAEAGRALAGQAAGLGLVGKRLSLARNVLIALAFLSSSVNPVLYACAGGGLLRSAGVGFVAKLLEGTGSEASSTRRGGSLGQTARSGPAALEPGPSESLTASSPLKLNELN

With `CCCCC/C=C\C[C@@H](O)/C=C/C=C/C=C\[C@@H](O)CCCC(=O)O` [LTB4, leukotriene-B4], the “increase in the number of TRAP-positive osteoclasts compared to the control group” value in the assay on rabbit osteoclasts (100 nM LTB4, 48 hours, dentin slices) is 30˜40% and 40%.

In the case of `COc1ccc(/C=C/CCCCOc2ccc(C(=O)c3cccc(C(=O)O)c3)cc2CCC(=O)O)cc1` [LY223982], in the assay with rabbit osteoclasts, the “number of TRAP(+) MNCs / osteoclast formation” value is listed as “did not change the number of osteoclasts”. For the same molecule, the LTB4-stimulated osteoclast formation entry in assay [1] (setting [2]) is listed as “significantly abolished LTB4-stimulated osteoclast formation”. For the same molecule, the IC50 on LTB4 receptor is 13 nM.

`CCc1cc(-c2ccc(F)cc2)c(O)cc1OCCCOc1ccc2c(=O)c3cc(C(=O)O)ccc3oc2c1CCC(=O)O` [LY292728]: in the assay with rabbit osteoclasts, the “number of TRAP(+) MNCs / osteoclast formation” value was “no significant effect on osteoclast formation compared to the control culture”. In addition, in the assay with rabbit osteoclasts (10˜1000 nM, 48 hours, tissue culture dish, single treatment (FIG. 1, 2)), the “number of TRAP(+) MNCs” value was “no significant effect on the number of osteoclasts”. For the same molecule, the LTB4-stimulated osteoclast formation result in assay [1] (pre-treatment 18 hrs, then 1000 nM compound + 100 nM LTB4 for 48 hrs, dentin slices) is on record as “appeared to suppress the formation of osteoclasts”; in assay [1] (simultaneous treatment: 1000 nM compound + 100 nM LTB4, 48 hrs, dentin slices), “significantly abolished osteoclast formation increased by LTB4”. Besides, the inhibition constant (Ki) on LTB4 receptor was 0.5 nM.

In the case of `CCCc1c(OCCCOc2cc(O)c(-c3ccc(F)cc3)cc2CC)cccc1Oc1ccccc1C(=O)O` [LY293111], in the assay with rabbit osteoclasts, the “number of TRAP(+) MNCs / osteoclast formation” value is listed as “did not change the number of osteoclasts”. The LTB4-stimulated osteoclast formation entry in assay [1] (setting [2]) is “significantly abolished LTB4-stimulated osteoclast formation”. Further, the Ki on LTB4 receptor is 25 nM.

Consider `O=C(O)/C=C/c1nc(CSc2c(Cl)cccc2Cl)ccc1OCCc1ccccc1` [SB209247], for which, in the assay with rabbit osteoclasts, the “number of TRAP(+) MNCs / osteoclast formation” value is on record as “did not change the number of osteoclasts”. Moreover, the LTB4-stimulated osteoclast formation entry in assay [1] (setting [2]) is “significantly abolished LTB4-stimulated osteoclast formation”.
